# In publication PMC3693772, “Protein expression, biochemical pharmacology of signal transduction, and relation to intraocular pressure modulation by bradykinin B2 receptors in ciliary muscle” (Molecular Vision, 2013):
# Like-named read-outs stand apart in the source and are kept apart here.
# Experiments:
# primary h-CM cells = type: cell-based, human; conditions: for EC50: 1 h at 37 °C, enzyme immunoassay, mean ± SEM, 3 to 6 experiments, read-out: Total PGs production in h-CM cells (EC50)
# [1] = system: B2-receptor, primary h-CM cells; type: cell-based, human
# Description: Functional assay measuring [Ca^2+]i mobilization in cultured human ciliary muscle cells
# Accordingly, we isolated h-CM cells and studied BK-induced [Ca^2+]i mobilization in these cells using the Fluorescence Imaging Plate Reader (FLIPR; Molecular Devices, Menlo Park, CA) instrument as previously described. Low passage h-CM cells were seeded at a density of about 20,000 cells/well in a black-wall, 96-well tissue culture plates and grown for 2 days. On the day of the experiment, one vial of FLIPR Calcium Assay Kit dye (Molecular Devices) was resuspended in 50 ml of a FLIPR buffer consisting of Hank’s Balanced Salt Solution (HBSS), 20 mM HEPES, and 2.5 mM probenecid, pH 7.4. Cells were loaded with the calcium-sensitive dye (proprietary to Molecular Devices) by adding an equal volume (50 µl) to each well of the 96-well plate and incubated with dye for 1 h at 23 °C. Then the test compound plate and the cell plate were placed in the FLIPR instrument, and an aliquot (25 μl) of the BK solution (positive control) or the test compound was added to the existing 100 μl dye-loaded cells at a dispensing speed of 50 μl/sec. Fluorescence data were collected in real time over a period of time. Responses were measured as peak fluorescence intensity minus basal and where appropriate are expressed as a percentage of a maximum BK-induced response [Emax %]. When antagonist studies were performed, the latter were incubated with the cells for 15 min before BK was added. When the effects of various cellular signaling inhibitors/treatments were investigated, they were added to the cells 5 min before BK was added. The potencies (EC50 or IC50 values) of agonists and antagonists were determined from concentration-response curves using a sigmoidal-fit, iterative algorithm of a computer program designed to automatically fit the raw data (ActivityBase, IDBS, Surrey, UK). […] Concentration-response curves and other plots for the manuscript were constructed using Origin® software package (Microcal® Software Inc., Northampton, MA).
# Figure 3 Concentration-dependent effect of bradykinin (BK) on mobilization of [Ca^2+]i in normal, primary h-CM cells. Fluorescent dye-loaded h-CM cells were exposed to different concentrations of BK and the changes in relative fluorescence units (RFUs), indicating changes in levels of [Ca^2+]i, monitored over time (Figure 3A). The peak responses to various BK concentrations were then used to construct the concentration-response curves. Other BK-related peptides were tested in the same manner and their concentration-response curves plotted (e.g., data from a representative experiment; Figure 3B).
# primary h-TM cells = type: cell-based, human; conditions: preliminary data, values rounded-off, read-out: Agonist potency at stimulating [Ca^2+]i mobilization in primary h-TM cells (EC50)
# CHO-B2 cells [2] = type: cell-based, Chinese hamster ovary cells, human cloned B2 receptor; conditions: 1 h at 37 °C; enzyme immunoassay; mean ± SEM, 3 to 6 experiments; read-out: PGF2α production in CHO-B2 cells (EC50)
# h-CM cells [3] = type: cell-based, human; conditions: 1 h at 37 °C; enzyme immunoassay; mean ± SEM, 3 to 6 experiments; read-out: PGE2 production in h-CM cells (EC50)
# CHO-B2 cells [4] = type: cell-based, Chinese hamster ovary cells, human cloned B2 receptor; conditions: 1 h at 37 °C; enzyme immunoassay; mean ± SEM, 3 to 6 experiments; read-out: PGE2 production in CHO-B2 cells (EC50)
# [5] = system: CHO-B2 cells (human cloned B2 receptor); type: cell-based, Chinese hamster ovary cells; conditions: for EC50: 1 h at 37 °C, enzyme immunoassay, mean ± SEM, 3 to 6 experiments, read-out: Total PGs production in CHO-B2 cells (EC50); for PG production/release by compound alone, CHO-B2 cells: compound on its own
# h-CM cells [6] = type: cell-based, human; conditions: 1 h at 37 °C; enzyme immunoassay; mean ± SEM, 3 to 6 experiments; read-out: PGF2α production in h-CM cells (EC50)
# CHO-B2 cells [7] = conditions: read-out: PGD2 production in CHO-B2 cells (EC50), 1 h at 37 °C, enzyme immunoassay
# Description: Measurement of prostaglandins in human ciliary muscle and Chinese hamster ovary cells expressing B2 receptors
# This involved stimulating h-CM cells and CHO-B2 cells with various concentrations of test peptides and measuring the release of various PGs in the extracellular medium. The concentration-dependent effects of these peptides on total PGs, and specifically PGE2, PGF2α, and PGD2 release, were studied. Cells were grown as a monolayer in a 24-well plate (precoated with fibronectin) to confluence and subsequently serum-starved overnight before the experiment. On the day of the experiment, just before the drug was added, the wells were aspirated completely, and 990 µl basal medium and 10 µl 100× series of concentrations of the different peptide agonists were added to achieve the desired final concentrations of each compound (e.g., 0.1 nM to 10 µM). […] At the end of the incubation period, the cellular supernatants were collected and stored at −80 °C or used immediately to determine the PG content. Cell supernatants were tested for total PG levels and sub-species of PGs (PGE2, PGF2α, and PGD2) using specific competitive enzyme immunoassays (Cayman Chemical Co., Ann Arbor, MI) as directed in the manufacturer’s recommended protocols using the supplied standards and reagents. The limits of detection for various PGs were as follows: total PGs=29 pg/ml; PGE2=15 pg/ml; PGF2α=9 pg/ml; PGD2=200 pg/ml.
# human cloned B2 receptor = biological target: T1, human cloned B2 receptor (Homo sapiens, UniProt P30411); assay: [^3H]-BK binding to human cloned B2 receptor (CHO-B2 membranes); conditions: 0.2 nM [^3H]-BK, CHO-B2 homogenates 2.5 µg protein, 60 min, 23 °C, 50 mM Tris/HCl pH 7.4; mean±SEM, up to 19 experiments; read-out: Ligand binding inhibition constant at human cloned B2 receptors (Ki)
# T1 construct: purchased Euroscreen, Gosselies, Belgium; host or cells: CHO cells (recombinant, CHO-B2), used as cell homogenates/membranes
# T1 sequence (P30411 1-391): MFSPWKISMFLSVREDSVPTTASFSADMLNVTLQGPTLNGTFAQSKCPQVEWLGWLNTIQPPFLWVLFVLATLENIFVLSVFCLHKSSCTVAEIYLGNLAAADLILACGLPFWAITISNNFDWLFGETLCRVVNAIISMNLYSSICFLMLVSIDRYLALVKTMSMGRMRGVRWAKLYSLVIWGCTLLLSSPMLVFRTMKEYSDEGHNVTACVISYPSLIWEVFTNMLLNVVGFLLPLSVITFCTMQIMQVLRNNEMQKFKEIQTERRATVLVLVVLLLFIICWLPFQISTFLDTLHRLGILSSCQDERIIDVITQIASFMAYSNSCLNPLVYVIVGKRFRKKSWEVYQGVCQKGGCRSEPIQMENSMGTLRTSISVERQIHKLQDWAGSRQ
# Description: However, in view of the difficulty of obtaining sufficient h-CM cells for these initial studies, we decided to use cell membranes of Chinese hamster ovary cells containing the human cloned B2 receptor (CHO-B2; Euroscreen, Gosselies, Belgium). […] Following this incubation, the samples were filtered rapidly under vacuum through glass fiber filters (PerkinElmer) presoaked with 0.3% polyethyleneimine and rinsed several times with an ice-cold 50 mM Tris-HCl buffer using a 96-sample cell harvester (TomTec; Gaithersburg, MD). The filters were air-dried and the radioactivity counted in a beta-scintillation counter (TopCount, PerkinElmer). Data were analyzed using a sigmoidal-fit, iterative algorithm of a computer program designed to automatically fit the new data (Activity base; IDBS, Surrey, UK).
# cynomolgus monkey eyes = conditions: cabergoline 50 µg topical, ocular hypertensive eyes, nine monkeys, ref Thirty ([30]), cited from earlier work
# Description: Table 4 Effects of topical ocular bradykinin on IOP of Cynomolgus monkey eyes | column: Monkey IOP changes after topical ocular dosing / IOP (mmHg); Monkey IOP changes after topical ocular dosing / IOP change (% of control)
compound,measurement,setting,value
N=C(N)NCCC[C@H](NC(=O)[C@H](Cc1ccccc1)NC(=O)[C@@H]1CCCN1C(=O)[C@H](CO)NC(=O)[C@H](Cc1ccccc1)NC(=O)CNC(=O)[C@@H]1C[C@@H](O)CN1C(=O)[C@@H]1CCCN1C(=O)[C@@H](N)CCCNC(=N)N)C(=O)O [Hyp^3-BK],EC50,primary h-CM cells,10.9 ± 6.1 nM
same,EC50,"[1]; primary h-CM cells, FLIPR, Calcium Assay Kit dye, pH 7.4, 23 °C dye loading, mean ± SEM, n=3-7, read-out: Agonist potency at stimulating [Ca^2+]i mobilization in primary h-CM cells (EC50)",2.2 ± 0.2 nM
same,EC50,primary h-TM cells,1 nM
same,EC50,CHO-B2 cells [2],0.0593 ± 0.0373 nM
same,EC50,h-CM cells [3],10.1 ± 4.2 nM
same,EC50,CHO-B2 cells [4],0.0307 ± 0.0185 nM
same,EC50,[5],0.0683 ± 0.0367 nM
same,EC50,h-CM cells [6],9.2 ± 5.3 nM
same,EC50,CHO-B2 cells [7]; first of two values in cell,0.0304 nM
same,EC50,CHO-B2 cells [7]; second of two values in cell,0.0582 nM
CSCC[C@H](N)C(=O)N[C@@H](CCCCN)C(=O)N[C@@H](CCCNC(=N)N)C(=O)N1CCC[C@H]1C(=O)N1CCC[C@H]1C(=O)NCC(=O)N[C@@H](Cc1ccccc1)C(=O)N[C@@H](CO)C(=O)N1CCC[C@H]1C(=O)N[C@@H](Cc1ccccc1)C(=O)N[C@@H](CCCNC(=N)N)C(=O)O [Met-Lys-BK],Ki,human cloned B2 receptor,73 ± 24.7 nM
CNCC(=O)N[C@@H](CCCNC(=N)N)C(=O)N1CCC[C@H]1C(=O)N1CCC[C@H]1C(=O)NCC(=O)N[C@@H](Cc1ccccc1)C(=O)N[C@@H](CO)C(=O)N1CCC[C@H]1C(=O)N[C@H](Cc1ccccc1)C(=O)O [Sar-[D-Phe^9]-Des-Arg^9-BK],EC50,primary h-CM cells,> 1000 nM
same,EC50,[5],> 1 nM
"O=C(O)CN(CCOCCOCCN(CC(=O)O)CC(=O)O)CC(=O)O [EGTA, ethylene glycol tetraacetic acid]",Effect on BK-induced [Ca^2+]i mobilization,"[1]; EGTA 1 mM, 5 min preincubation",complete abolition of the response to BK
same,Effect on BK-induced [Ca^2+]i mobilization,[1]; EGTA 1–2 mM,totally abolished
same,Effect on BK-induced [Ca^2+]i mobilization,"[1]; EGTA 1–2 mM, listed as ethylene glycol tetraacetic acid",abolished
"C=CCN1C[C@H](C(=O)N(CCCN(C)C)C(=O)NCC)C[C@@H]2c3cccc4[nH]cc(c34)C[C@H]21 [Cabergoline, cabergoline]",IOP,cynomolgus monkey eyes; 0 h,34.7±3.0 mmHg
same,IOP change (% of control),cynomolgus monkey eyes; 0 h,0%
same,IOP change (% of control),cynomolgus monkey eyes; 1 h,-16.0%
same,IOP change (% of control),cynomolgus monkey eyes; 3 h,-30.4%
same,IOP change (% of control),cynomolgus monkey eyes; 7 h,-28.8%
same,IOP change (% of control),cynomolgus monkey eyes; 24 h,-27.3%
C/C=C(/C)C(=O)O[C@H]1C(C)=C2[C@H]([C@@H]1OC(=O)CCCCCCC)[C@@](C)(OC(C)=O)C[C@H](OC(=O)CCC)[C@@]1(O)[C@H]2OC(=O)[C@@]1(C)O [thapsigargin],Reduction of BK-mobilized [Ca^2+]i levels vs control cells,[1]; thapsigargin 0.1 or 30 µM preincubation,> 50%
same,Effect on response to BK after thapsigargin,[1]; thapsigargin pretreatment,blunted but not abolished
same,Effect on BK-induced [Ca^2+]i rise in presence of EGTA,"[1]; thapsigargin, 1 mM EGTA included",concentration-dependently reduced
ryanodine,Effect on BK-induced [Ca^2+]i levels,"[1]; ryanodine 1–30 µM, data not shown",did not enhance but instead slightly reduced the effect of BK
CCCC[P+](CCCC)(CCCC)Cc1ccc(NC(=O)[C@H](Cc2ccc3ccccc3c2)NC(=NC2CCCCC2)NC2CCCCC2)cc1.[Cl-] [(S)-WIN-64338],EC50,primary h-CM cells,> 10000 nM
same,"PG production/release by compound alone, h-CM cells","primary h-CM cells; compound on its own, listed as WIN-64338",did not induce PGs release
same,"Effect on BK-induced total PGs production, h-CM cells",primary h-CM cells,blocked
same,"Effect on BK-induced total PGs production, h-CM cells",primary h-CM cells; listed as WIN-64338,potent antagonism
same,EC50,CHO-B2 cells [2],> 10 nM
same,EC50,h-CM cells [3],> 10000 nM
same,EC50,CHO-B2 cells [4],> 10 nM
same,EC50,[5],> 10 nM
same,"Effect on BK-induced total PGs production, CHO-B2 cells",[5],blocked
same,"Effect on BK-induced total PGs production, CHO-B2 cells",[5]; listed as WIN-64338,potent antagonism
same,"PG production/release by compound alone, CHO-B2 cells",[5],failed to influence PG production
same,"PG production/release by compound alone, CHO-B2 cells",[5]; listed as WIN-64338,did not induce PGs release
same,EC50,h-CM cells [6],> 10000 nM
N=C(N)NCCC[C@H](N)C(=O)N1CCC[C@H]1C(=O)N1CCC[C@H]1C(=O)NCC(=O)N[C@@H](Cc1ccccc1)C(=O)N[C@@H](CO)C(=O)N1CCC[C@H]1C(=O)N[C@@H](Cc1ccccc1)C(=O)O [Des-Arg^9-BK],EC50,primary h-CM cells,> 1000 nM
same,EC50,primary h-TM cells,3600 nM
same,EC50,CHO-B2 cells [2],> 100 nM
same,EC50,h-CM cells [3],> 1000 nM
same,EC50,CHO-B2 cells [4],> 100 nM
same,EC50,[5],> 100 nM
same,EC50,h-CM cells [6],> 1000 nM
same,EC50,CHO-B2 cells [7]; one bound printed,> 100 nM
